What was measured:
Type in all cases: biochemical
Src = biological target: T1, Src (Homo sapiens, UniProt P12931); assay: Kinase inhibition assay (33P transfer), Src; details: Table 6, Src-1 kinase inhibition class
T1 construct: Kinases are expressed as either kinase domains or full length constructs; made in house
Procedure, shortened: (§1)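 Each enzyme, purified to near homogeneity by affinity chromatography, was incubated with ATP carrying 33P and a substrate polymer fixed to the plate. Unbound label was removed with dilute phosphoric acid (0.5%) before adding scintillant and counting. Potency is given as the compound level cutting label uptake by 50%.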

ErbB4 = biological target: T2, ErbB4 (Homo sapiens, UniProt Q15303); assay: Kinase inhibition assay (33P transfer), ErbB4; details: read-out: ErbB4-1
T2 construct: Kinases are expressed as either kinase domains or full length constructs; made in house

EGFR = biological target: T3, EGFR (Homo sapiens, UniProt P00533); assay: Kinase inhibition assay (33P transfer), EGFR; details: Table 2, kinase inhibition class; read-out: EGFR-1
T3 construct: Kinases are expressed as either kinase domains or full length constructs; made in house
Procedure, shortened: as §1

IGFR-1 = biological target: T4, IGFR-1 (Homo sapiens, UniProt P08069); assay: Kinase inhibition assay (33P transfer), IGFR-1; details: Table 2, kinase inhibition class
T4 construct: Kinases are expressed as either kinase domains or full length constructs; made in house

Fyn = biological target: T5, Fyn (Homo sapiens, UniProt P06241); assay: Kinase inhibition assay (33P transfer), Fyn; details: read-out: Fyn-1
T5 construct: Kinases are expressed as either kinase domains or full length constructs; made in house
Procedure, shortened: as §1

Itk = biological target: T6, Itk (Homo sapiens, UniProt Q08881); assay: Kinase inhibition assay (33P transfer), Itk; details: Table 3; read-out: Itk-1
T6 construct: Kinases are expressed as either kinase domains or full length constructs; made in house
T6 sequence (Q08881 1-620): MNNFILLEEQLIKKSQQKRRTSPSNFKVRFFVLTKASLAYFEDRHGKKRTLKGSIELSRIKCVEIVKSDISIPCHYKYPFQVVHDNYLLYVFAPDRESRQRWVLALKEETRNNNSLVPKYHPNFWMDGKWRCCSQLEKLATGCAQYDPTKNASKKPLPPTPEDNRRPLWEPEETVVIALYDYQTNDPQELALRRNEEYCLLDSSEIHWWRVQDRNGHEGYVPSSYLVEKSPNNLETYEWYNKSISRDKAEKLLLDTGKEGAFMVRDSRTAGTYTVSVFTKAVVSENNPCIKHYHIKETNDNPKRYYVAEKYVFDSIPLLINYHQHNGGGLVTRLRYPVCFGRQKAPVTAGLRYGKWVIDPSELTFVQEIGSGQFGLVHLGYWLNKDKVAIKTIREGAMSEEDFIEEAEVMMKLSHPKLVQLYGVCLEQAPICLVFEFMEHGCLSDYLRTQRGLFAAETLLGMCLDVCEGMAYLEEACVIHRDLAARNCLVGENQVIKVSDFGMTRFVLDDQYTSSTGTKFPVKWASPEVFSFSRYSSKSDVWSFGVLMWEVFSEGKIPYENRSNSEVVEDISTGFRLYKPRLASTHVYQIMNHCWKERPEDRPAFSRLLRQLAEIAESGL
Procedure, shortened: as §1

EPHB4 = biological target: T7, EPHB4 (Homo sapiens, UniProt P54760); assay: Kinase inhibition assay (33P transfer), EPHB4; details: read-out: EPHB4-1
T7 construct: Kinases are expressed as either kinase domains or full length constructs; made in house
T7 sequence (P54760 16-987): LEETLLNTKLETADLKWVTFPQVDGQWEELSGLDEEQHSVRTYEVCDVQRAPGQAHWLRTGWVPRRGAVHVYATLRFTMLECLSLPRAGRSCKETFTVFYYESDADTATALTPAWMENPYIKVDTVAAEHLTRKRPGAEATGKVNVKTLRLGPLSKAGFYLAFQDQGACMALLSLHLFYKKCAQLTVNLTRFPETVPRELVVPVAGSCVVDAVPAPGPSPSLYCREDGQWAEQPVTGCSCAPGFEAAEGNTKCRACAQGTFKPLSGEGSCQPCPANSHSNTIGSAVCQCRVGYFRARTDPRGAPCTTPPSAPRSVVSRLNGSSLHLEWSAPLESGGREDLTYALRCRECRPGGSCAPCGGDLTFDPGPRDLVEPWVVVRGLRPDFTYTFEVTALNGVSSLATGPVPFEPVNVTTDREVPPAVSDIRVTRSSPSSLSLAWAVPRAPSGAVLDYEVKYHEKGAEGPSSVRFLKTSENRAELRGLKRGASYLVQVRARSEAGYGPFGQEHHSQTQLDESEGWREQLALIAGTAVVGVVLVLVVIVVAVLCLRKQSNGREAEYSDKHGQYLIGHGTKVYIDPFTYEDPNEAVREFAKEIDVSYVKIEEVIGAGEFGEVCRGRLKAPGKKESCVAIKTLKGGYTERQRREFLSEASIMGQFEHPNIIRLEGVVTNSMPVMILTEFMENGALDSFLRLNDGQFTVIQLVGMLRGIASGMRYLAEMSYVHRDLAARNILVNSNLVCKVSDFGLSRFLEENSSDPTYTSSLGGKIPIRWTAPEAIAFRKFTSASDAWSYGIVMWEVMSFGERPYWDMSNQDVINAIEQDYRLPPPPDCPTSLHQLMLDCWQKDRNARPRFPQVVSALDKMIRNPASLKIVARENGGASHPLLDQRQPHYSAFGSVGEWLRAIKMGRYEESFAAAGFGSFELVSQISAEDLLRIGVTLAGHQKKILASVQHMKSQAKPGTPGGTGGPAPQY

Hck-1 = biological target: T8, Hck-1 (Homo sapiens, UniProt P08631); assay: Kinase inhibition assay (33P transfer), Hck; details: Table 6, Hck-1 kinase inhibition class
T8 construct: Kinases are expressed as either kinase domains or full length constructs; made in house

c-Met = biological target: T9, c-Met (Homo sapiens, UniProt P08581); assay: Kinase inhibition assay (33P transfer), c-Met; details: Table 2, kinase inhibition class; read-out: Met-1
T9 construct: Kinases are expressed as either kinase domains or full length constructs; made in house
Procedure, shortened: as §1

T1 sequence (P12931 whole entry, species assumed, the tested form may be a part): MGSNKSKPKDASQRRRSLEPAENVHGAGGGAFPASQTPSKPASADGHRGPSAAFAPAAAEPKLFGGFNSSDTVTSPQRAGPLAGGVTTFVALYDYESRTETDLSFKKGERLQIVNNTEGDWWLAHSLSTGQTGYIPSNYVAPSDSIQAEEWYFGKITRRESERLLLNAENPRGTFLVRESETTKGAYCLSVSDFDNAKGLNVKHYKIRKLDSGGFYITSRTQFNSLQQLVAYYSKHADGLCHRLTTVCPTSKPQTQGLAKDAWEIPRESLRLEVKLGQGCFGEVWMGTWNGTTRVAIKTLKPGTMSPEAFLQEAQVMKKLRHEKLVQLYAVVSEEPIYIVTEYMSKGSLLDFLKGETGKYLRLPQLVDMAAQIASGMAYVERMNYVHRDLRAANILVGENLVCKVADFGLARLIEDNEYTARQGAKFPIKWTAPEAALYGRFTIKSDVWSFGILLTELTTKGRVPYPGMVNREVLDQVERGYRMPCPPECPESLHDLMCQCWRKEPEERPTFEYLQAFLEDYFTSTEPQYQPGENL
T9 sequence (P08581 25-1390): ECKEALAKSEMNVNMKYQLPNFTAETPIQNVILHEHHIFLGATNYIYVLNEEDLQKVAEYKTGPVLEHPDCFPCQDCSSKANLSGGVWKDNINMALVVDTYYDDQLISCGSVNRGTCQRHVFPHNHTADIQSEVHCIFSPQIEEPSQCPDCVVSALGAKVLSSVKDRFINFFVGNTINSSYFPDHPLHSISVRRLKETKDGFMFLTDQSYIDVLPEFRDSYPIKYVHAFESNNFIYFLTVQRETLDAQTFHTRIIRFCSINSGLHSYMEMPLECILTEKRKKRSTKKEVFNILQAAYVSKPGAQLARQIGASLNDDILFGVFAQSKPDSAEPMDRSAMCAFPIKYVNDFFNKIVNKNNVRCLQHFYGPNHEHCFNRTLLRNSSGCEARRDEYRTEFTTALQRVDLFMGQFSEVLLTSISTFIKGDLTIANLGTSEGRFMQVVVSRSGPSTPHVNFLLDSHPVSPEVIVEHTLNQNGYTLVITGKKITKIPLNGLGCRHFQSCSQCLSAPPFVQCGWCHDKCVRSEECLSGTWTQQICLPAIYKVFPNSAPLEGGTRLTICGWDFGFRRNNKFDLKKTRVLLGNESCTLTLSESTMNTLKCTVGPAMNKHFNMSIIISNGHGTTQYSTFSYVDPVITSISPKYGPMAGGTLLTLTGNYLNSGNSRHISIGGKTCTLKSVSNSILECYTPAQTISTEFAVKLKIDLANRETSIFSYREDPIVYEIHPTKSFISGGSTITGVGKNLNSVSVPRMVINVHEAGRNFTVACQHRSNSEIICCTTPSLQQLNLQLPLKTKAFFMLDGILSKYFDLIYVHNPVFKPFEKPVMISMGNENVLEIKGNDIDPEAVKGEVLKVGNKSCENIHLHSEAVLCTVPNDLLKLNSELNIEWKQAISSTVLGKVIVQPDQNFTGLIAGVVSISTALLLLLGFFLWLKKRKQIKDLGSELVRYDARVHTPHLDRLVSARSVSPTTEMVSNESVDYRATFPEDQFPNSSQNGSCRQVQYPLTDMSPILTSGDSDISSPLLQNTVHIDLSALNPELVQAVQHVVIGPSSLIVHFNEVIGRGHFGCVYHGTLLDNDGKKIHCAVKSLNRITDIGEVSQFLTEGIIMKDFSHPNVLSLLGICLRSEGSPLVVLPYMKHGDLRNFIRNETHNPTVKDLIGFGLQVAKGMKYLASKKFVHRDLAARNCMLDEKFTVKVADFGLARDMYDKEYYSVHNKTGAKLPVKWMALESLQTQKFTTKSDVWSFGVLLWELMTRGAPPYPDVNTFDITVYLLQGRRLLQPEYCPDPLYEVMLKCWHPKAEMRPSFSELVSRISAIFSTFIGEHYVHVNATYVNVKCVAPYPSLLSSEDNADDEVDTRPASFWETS
T8 sequence (P08631 whole entry, the tested form may be a part): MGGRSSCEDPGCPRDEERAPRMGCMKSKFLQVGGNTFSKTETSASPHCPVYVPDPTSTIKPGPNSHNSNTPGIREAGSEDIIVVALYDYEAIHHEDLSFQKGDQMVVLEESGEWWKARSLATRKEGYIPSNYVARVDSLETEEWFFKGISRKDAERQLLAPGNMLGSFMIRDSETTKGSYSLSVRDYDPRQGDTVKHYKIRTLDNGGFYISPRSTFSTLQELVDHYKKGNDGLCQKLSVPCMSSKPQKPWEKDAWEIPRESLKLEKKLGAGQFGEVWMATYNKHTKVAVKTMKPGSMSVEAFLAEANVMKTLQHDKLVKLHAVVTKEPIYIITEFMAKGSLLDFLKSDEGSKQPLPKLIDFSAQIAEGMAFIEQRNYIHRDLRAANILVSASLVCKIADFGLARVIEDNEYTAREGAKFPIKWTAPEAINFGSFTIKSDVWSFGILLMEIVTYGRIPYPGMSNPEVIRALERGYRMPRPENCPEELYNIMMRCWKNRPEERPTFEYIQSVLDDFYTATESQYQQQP
T4 sequence (P08069 31-1367): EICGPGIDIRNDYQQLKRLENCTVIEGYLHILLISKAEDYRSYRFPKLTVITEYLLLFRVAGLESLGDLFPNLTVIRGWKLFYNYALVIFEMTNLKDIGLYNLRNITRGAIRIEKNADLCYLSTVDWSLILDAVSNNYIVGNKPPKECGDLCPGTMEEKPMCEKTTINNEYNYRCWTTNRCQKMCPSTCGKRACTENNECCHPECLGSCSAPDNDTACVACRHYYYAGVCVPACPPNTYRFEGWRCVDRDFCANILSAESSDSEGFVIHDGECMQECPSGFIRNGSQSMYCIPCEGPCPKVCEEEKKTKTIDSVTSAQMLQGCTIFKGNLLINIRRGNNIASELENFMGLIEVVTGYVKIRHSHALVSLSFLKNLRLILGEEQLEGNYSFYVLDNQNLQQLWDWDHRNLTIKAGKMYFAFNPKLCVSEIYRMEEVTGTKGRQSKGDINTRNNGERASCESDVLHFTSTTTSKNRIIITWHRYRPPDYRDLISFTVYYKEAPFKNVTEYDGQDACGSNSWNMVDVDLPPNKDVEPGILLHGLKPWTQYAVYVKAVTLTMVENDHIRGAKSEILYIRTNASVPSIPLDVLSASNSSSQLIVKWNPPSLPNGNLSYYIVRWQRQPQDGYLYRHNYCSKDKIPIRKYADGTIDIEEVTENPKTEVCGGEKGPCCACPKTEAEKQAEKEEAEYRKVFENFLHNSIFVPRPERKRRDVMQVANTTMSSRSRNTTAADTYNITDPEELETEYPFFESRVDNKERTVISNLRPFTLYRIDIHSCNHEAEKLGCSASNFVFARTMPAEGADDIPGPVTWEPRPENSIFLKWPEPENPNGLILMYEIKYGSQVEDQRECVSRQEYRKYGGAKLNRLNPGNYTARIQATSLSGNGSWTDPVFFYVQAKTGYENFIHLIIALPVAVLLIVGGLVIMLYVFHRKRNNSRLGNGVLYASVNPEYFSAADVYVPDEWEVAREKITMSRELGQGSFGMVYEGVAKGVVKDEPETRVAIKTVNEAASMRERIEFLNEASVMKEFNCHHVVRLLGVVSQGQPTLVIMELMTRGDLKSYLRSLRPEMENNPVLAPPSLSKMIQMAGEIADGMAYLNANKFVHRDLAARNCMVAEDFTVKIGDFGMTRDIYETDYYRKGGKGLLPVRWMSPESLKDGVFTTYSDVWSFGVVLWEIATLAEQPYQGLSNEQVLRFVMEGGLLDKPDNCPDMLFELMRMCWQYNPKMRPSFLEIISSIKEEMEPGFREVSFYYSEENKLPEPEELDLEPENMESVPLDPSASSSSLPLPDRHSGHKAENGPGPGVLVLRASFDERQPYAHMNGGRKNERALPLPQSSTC
T3 sequence (P00533 25-1210, species assumed): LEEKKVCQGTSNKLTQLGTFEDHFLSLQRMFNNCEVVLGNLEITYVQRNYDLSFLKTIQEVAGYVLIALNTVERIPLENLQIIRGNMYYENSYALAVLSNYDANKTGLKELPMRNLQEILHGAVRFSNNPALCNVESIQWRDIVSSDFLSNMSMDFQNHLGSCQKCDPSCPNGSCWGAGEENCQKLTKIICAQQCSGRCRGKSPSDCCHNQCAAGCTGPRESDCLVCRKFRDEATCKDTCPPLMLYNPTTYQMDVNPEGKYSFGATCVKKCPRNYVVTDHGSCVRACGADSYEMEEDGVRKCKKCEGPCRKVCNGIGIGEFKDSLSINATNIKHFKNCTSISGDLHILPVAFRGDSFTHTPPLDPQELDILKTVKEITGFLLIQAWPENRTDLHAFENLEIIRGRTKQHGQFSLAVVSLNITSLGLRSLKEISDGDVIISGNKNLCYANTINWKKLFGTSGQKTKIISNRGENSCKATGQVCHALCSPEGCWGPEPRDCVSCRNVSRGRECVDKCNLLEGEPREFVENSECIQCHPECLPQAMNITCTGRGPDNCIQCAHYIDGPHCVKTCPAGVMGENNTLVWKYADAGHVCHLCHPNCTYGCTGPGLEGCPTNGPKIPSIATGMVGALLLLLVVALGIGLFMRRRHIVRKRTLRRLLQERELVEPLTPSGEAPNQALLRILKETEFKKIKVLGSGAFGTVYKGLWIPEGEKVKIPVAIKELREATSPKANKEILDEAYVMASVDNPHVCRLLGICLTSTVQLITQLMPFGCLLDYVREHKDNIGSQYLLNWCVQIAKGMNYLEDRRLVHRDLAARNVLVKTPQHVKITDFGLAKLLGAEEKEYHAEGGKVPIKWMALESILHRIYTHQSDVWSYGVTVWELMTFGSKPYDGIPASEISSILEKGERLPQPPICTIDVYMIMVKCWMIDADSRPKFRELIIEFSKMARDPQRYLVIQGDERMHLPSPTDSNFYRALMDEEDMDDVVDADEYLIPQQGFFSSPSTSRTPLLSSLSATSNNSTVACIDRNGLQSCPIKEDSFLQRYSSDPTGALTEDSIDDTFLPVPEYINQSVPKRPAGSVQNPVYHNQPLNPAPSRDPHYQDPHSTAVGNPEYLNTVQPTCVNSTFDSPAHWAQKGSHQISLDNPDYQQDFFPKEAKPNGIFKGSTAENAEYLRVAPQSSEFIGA

C=CCN(c1ccc(Cl)cc1)c1ncnc(Nc2cc(OC)c(OC)c(OC)c2)n1 [Compound 972]
IC50 (Src): 0.935 to 5.61 µM
IC50 (ErbB4): 0.935 to 5.61 µM
IC50 (EGFR): < 0.935 µM
IC50 (IGFR-1): 5.61 to 8.18 µM
IC50 (Fyn): 0.935 to 5.61 µM
IC50 (Itk): > 10.5 µM
IC50 (EPHB4): 0.935 to 5.61 µM
IC50 (Hck-1): > 10.5 µM
IC50 (c-Met): 0.935 to 5.61 µM

COc1ccc(Nc2ncnc(N(C/C=C/c3ccccc3)c3ccc(Cl)cc3)n2)cc1OC [Compound 974]
IC50 (Src): > 9.49 µM
IC50 (ErbB4): > 9.49 µM
IC50 (EGFR): < 0.844 µM
IC50 (IGFR-1): > 9.49 µM
IC50 (Fyn): > 9.49 µM
IC50 (Itk): > 9.49 µM
IC50 (EPHB4): > 9.49 µM
IC50 (Hck-1): > 9.49 µM
IC50 (c-Met): > 9.49 µM

From patent US7074789B2, “Kinase inhibitors” (Amgen Inc., priority 1999, dated 2006)
